Calls of active or inactive are those of the source.
Target: Protein kinase C alpha type (Homo sapiens, UniProt P17252)
Note: in the data inactive means no Kd found up to 30 µM.

Compound	Kd
O=C1NC(=O)/C(=C/c2ccc3nccc(-c4ccncc4)c3c2)S1 [GSK-1059615]	> 30 µM (inactive)
Cc1c(F)cc(C(=O)NC2CC2)cc1-c1ccc(C(=O)NCC(C)(C)C)cn1 [LOSMAPIMOD]	> 30 µM (inactive)
Cn1cc(-c2ccc(F)c(C(F)(F)F)c2)nc1C1CCN(c2ncnc3[nH]ncc23)CC1 [LY-2584702]	> 30 µM (inactive)

Target: Chromodomain-helicase-DNA-binding protein 4 (Homo sapiens, UniProt Q14839)

Compound	Kd
O=C1NC(=O)/C(=C/c2ccc3nccc(-c4ccncc4)c3c2)S1 [GSK-1059615]	> 30 µM (inactive)
Cc1c(F)cc(C(=O)NC2CC2)cc1-c1ccc(C(=O)NCC(C)(C)C)cn1 [LOSMAPIMOD]	> 30 µM (inactive)
Cn1cc(-c2ccc(F)c(C(F)(F)F)c2)nc1C1CCN(c2ncnc3[nH]ncc23)CC1 [LY-2584702]	> 30 µM (inactive)

Target: T1, Phenylalanine--tRNA ligase beta subunit (Homo sapiens, UniProt Q9NSD9)
T1 sequence (Q9NSD9 whole entry): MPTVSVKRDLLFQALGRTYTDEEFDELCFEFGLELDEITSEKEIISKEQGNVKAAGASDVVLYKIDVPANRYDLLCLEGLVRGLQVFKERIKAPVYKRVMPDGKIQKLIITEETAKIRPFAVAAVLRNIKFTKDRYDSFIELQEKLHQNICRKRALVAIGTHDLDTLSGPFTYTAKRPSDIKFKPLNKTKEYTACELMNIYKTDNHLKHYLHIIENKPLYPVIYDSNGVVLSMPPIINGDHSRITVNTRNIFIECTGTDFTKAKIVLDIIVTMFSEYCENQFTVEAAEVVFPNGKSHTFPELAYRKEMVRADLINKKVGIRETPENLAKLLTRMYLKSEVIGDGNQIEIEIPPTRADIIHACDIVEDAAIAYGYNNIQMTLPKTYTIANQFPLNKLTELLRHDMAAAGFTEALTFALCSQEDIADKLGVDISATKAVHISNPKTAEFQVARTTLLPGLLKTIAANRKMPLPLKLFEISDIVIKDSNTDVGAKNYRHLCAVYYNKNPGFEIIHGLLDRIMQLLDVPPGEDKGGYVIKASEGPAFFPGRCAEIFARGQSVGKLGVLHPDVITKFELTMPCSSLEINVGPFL

Compound	Kd
O=C1NC(=O)/C(=C/c2ccc3nccc(-c4ccncc4)c3c2)S1 [GSK-1059615]	> 30 µM (inactive)
Cc1c(F)cc(C(=O)NC2CC2)cc1-c1ccc(C(=O)NCC(C)(C)C)cn1 [LOSMAPIMOD]	> 30 µM (inactive)
Cn1cc(-c2ccc(F)c(C(F)(F)F)c2)nc1C1CCN(c2ncnc3[nH]ncc23)CC1 [LY-2584702]	> 30 µM (inactive)

Target: Myosin-14 (Homo sapiens, UniProt Q7Z406)

Compound	Kd
O=C1NC(=O)/C(=C/c2ccc3nccc(-c4ccncc4)c3c2)S1 [GSK-1059615]	> 30 µM (inactive)
Cn1cc(-c2ccc(F)c(C(F)(F)F)c2)nc1C1CCN(c2ncnc3[nH]ncc23)CC1 [LY-2584702]	> 30 µM (inactive)

Target: 26S proteasome regulatory subunit 6B (Homo sapiens, UniProt P43686)
Sequence (P43686 whole entry): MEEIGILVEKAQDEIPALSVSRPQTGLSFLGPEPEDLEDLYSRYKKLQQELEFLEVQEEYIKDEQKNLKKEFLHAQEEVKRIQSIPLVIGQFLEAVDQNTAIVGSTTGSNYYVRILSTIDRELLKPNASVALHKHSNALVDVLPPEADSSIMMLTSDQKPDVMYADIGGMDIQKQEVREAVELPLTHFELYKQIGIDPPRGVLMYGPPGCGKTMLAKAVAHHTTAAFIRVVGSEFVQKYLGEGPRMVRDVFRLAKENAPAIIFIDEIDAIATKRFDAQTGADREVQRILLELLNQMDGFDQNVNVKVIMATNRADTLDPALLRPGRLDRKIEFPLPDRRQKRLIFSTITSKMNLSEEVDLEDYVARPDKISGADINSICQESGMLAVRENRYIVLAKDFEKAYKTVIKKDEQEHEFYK

Compound	Kd
O=C1NC(=O)/C(=C/c2ccc3nccc(-c4ccncc4)c3c2)S1 [GSK-1059615]	> 30 µM (inactive)
Cc1c(F)cc(C(=O)NC2CC2)cc1-c1ccc(C(=O)NCC(C)(C)C)cn1 [LOSMAPIMOD]	> 30 µM (inactive)
Cn1cc(-c2ccc(F)c(C(F)(F)F)c2)nc1C1CCN(c2ncnc3[nH]ncc23)CC1 [LY-2584702]	> 30 µM (inactive)

Target: Wee1-like protein kinase (Homo sapiens, UniProt P30291)
Sequence (P30291 whole entry): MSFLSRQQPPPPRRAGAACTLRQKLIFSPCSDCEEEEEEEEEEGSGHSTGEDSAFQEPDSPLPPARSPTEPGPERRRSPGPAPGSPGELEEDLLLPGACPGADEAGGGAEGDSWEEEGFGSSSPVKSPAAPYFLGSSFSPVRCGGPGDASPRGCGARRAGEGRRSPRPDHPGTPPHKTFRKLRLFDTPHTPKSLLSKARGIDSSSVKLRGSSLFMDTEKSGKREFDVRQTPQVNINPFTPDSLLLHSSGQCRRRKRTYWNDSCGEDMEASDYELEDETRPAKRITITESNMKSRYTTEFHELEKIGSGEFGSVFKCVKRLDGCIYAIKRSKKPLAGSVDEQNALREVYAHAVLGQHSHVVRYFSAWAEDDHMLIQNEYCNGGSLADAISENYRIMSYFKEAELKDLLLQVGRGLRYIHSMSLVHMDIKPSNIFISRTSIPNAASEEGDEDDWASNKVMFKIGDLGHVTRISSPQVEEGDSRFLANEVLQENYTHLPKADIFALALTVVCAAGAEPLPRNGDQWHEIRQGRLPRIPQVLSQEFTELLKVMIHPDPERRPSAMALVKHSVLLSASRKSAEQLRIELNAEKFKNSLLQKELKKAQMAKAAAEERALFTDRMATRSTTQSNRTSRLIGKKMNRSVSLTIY

Compound	Kd
O=C1NC(=O)/C(=C/c2ccc3nccc(-c4ccncc4)c3c2)S1 [GSK-1059615]	> 30 µM (inactive)
Cc1c(F)cc(C(=O)NC2CC2)cc1-c1ccc(C(=O)NCC(C)(C)C)cn1 [LOSMAPIMOD]	> 30 µM (inactive)
Cn1cc(-c2ccc(F)c(C(F)(F)F)c2)nc1C1CCN(c2ncnc3[nH]ncc23)CC1 [LY-2584702]	> 30 µM (inactive)

Target: T2, Tyrosine--tRNA ligase, cytoplasmic (Homo sapiens, UniProt P54577)
T2 sequence (P54577 whole entry): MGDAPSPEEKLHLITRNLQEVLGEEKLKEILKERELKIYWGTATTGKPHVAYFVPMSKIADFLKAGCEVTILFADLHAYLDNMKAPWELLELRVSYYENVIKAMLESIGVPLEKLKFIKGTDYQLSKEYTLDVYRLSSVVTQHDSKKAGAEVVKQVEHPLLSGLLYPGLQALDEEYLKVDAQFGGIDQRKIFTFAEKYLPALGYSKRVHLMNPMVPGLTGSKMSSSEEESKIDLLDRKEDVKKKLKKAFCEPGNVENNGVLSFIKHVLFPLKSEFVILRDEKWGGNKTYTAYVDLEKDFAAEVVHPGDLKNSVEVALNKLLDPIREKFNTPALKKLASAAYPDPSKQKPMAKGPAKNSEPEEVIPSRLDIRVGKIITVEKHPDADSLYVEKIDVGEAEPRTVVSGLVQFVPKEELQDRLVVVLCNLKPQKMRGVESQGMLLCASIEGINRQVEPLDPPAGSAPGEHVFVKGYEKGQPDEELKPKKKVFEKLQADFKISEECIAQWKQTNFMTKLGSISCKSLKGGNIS

Compound	Kd
O=C1NC(=O)/C(=C/c2ccc3nccc(-c4ccncc4)c3c2)S1 [GSK-1059615]	> 30 µM (inactive)
Cc1c(F)cc(C(=O)NC2CC2)cc1-c1ccc(C(=O)NCC(C)(C)C)cn1 [LOSMAPIMOD]	> 30 µM (inactive)
Cn1cc(-c2ccc(F)c(C(F)(F)F)c2)nc1C1CCN(c2ncnc3[nH]ncc23)CC1 [LY-2584702]	> 30 µM (inactive)

Target: Ephrin type-A receptor 2 (Homo sapiens, UniProt P29317)
Sequence (P29317 whole entry): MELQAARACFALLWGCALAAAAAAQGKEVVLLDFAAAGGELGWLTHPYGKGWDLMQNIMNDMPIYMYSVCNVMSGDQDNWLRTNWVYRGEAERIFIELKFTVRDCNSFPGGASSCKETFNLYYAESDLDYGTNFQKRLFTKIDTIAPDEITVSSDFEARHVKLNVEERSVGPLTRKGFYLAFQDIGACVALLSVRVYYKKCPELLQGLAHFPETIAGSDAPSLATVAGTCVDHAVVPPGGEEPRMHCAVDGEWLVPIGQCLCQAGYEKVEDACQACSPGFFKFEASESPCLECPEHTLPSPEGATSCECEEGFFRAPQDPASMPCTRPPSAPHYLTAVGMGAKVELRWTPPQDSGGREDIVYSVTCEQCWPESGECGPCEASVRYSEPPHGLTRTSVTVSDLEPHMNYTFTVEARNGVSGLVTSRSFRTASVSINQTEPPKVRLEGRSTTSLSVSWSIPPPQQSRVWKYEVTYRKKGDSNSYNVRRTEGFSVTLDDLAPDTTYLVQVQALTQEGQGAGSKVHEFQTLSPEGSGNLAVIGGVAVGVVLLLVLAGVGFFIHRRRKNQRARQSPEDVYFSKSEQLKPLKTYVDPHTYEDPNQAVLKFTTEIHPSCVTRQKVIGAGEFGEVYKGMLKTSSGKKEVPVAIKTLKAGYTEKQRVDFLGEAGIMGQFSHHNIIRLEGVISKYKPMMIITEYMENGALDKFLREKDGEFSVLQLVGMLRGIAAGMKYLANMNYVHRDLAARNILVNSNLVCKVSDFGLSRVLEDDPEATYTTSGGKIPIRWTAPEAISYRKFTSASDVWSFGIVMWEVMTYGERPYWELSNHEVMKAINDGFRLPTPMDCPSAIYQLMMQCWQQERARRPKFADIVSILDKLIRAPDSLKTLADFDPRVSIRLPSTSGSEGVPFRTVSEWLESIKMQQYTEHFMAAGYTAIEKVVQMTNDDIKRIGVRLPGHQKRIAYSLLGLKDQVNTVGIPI

Compound	Kd
O=C1NC(=O)/C(=C/c2ccc3nccc(-c4ccncc4)c3c2)S1 [GSK-1059615]	> 30 µM (inactive)
Cc1c(F)cc(C(=O)NC2CC2)cc1-c1ccc(C(=O)NCC(C)(C)C)cn1 [LOSMAPIMOD]	> 30 µM (inactive)
Cn1cc(-c2ccc(F)c(C(F)(F)F)c2)nc1C1CCN(c2ncnc3[nH]ncc23)CC1 [LY-2584702]	> 30 µM (inactive)

Target: Mitogen-activated protein kinase kinase kinase 4 (Homo sapiens, UniProt Q9Y6R4)
Sequence (Q9Y6R4 whole entry): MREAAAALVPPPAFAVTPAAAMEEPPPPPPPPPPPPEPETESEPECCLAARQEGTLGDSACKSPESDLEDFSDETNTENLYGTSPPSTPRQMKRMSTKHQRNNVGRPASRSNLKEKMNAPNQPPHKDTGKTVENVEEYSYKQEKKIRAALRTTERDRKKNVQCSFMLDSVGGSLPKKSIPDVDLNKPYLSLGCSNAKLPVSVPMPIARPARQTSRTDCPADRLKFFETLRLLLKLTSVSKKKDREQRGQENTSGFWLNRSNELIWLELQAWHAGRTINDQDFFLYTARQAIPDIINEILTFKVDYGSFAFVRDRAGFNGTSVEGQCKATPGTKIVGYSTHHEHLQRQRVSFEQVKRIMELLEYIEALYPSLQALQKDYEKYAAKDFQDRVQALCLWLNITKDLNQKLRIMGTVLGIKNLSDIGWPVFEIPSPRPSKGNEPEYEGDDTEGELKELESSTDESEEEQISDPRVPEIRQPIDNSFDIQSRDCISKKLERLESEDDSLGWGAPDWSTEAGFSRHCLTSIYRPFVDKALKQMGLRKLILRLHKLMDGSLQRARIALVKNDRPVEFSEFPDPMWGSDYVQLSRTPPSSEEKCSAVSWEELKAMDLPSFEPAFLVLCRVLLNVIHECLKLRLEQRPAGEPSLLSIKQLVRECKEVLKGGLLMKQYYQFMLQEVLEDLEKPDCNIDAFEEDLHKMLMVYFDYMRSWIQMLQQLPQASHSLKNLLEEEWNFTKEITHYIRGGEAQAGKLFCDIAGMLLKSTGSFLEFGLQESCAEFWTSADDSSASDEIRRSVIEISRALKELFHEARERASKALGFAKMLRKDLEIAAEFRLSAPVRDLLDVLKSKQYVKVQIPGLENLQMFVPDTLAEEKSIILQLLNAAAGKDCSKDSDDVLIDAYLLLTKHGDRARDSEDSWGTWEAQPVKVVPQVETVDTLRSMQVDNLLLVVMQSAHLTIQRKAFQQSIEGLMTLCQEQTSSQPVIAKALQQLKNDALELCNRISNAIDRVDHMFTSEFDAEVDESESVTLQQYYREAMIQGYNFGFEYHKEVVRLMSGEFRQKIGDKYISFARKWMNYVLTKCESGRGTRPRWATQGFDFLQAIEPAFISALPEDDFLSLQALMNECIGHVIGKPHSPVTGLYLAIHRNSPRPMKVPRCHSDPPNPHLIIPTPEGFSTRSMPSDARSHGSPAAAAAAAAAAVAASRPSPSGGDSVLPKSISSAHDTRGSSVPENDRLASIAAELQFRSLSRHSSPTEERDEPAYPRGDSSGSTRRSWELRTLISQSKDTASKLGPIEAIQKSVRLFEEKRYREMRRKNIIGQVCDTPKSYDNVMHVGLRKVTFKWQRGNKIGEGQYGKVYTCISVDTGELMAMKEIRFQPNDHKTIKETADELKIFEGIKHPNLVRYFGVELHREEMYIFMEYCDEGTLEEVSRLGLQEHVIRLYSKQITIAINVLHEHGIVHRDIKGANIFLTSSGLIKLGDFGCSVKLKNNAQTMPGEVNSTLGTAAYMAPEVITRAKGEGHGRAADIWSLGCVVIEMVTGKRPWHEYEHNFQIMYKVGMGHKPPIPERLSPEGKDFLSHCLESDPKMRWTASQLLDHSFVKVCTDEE

Compound	Kd
O=C1NC(=O)/C(=C/c2ccc3nccc(-c4ccncc4)c3c2)S1 [GSK-1059615]	> 30 µM (inactive)
Cc1c(F)cc(C(=O)NC2CC2)cc1-c1ccc(C(=O)NCC(C)(C)C)cn1 [LOSMAPIMOD]	> 30 µM (inactive)
Cn1cc(-c2ccc(F)c(C(F)(F)F)c2)nc1C1CCN(c2ncnc3[nH]ncc23)CC1 [LY-2584702]	> 30 µM (inactive)

Target: Putative heat shock protein HSP 90-beta 2 (Homo sapiens, UniProt Q58FF8)

Compound	Kd
O=C1NC(=O)/C(=C/c2ccc3nccc(-c4ccncc4)c3c2)S1 [GSK-1059615]	> 30 µM (inactive)
Cc1c(F)cc(C(=O)NC2CC2)cc1-c1ccc(C(=O)NCC(C)(C)C)cn1 [LOSMAPIMOD]	> 30 µM (inactive)
Cn1cc(-c2ccc(F)c(C(F)(F)F)c2)nc1C1CCN(c2ncnc3[nH]ncc23)CC1 [LY-2584702]	> 30 µM (inactive)

Target: Inosine-5'-monophosphate dehydrogenase 2 (Homo sapiens, UniProt P12268)

Compound	Kd
Cc1c(F)cc(C(=O)NC2CC2)cc1-c1ccc(C(=O)NCC(C)(C)C)cn1 [LOSMAPIMOD]	> 30 µM (inactive)
Cn1cc(-c2ccc(F)c(C(F)(F)F)c2)nc1C1CCN(c2ncnc3[nH]ncc23)CC1 [LY-2584702]	> 30 µM (inactive)

Target: Interleukin-1 receptor-associated kinase 1 (Homo sapiens, UniProt P51617)
Sequence (P51617 whole entry): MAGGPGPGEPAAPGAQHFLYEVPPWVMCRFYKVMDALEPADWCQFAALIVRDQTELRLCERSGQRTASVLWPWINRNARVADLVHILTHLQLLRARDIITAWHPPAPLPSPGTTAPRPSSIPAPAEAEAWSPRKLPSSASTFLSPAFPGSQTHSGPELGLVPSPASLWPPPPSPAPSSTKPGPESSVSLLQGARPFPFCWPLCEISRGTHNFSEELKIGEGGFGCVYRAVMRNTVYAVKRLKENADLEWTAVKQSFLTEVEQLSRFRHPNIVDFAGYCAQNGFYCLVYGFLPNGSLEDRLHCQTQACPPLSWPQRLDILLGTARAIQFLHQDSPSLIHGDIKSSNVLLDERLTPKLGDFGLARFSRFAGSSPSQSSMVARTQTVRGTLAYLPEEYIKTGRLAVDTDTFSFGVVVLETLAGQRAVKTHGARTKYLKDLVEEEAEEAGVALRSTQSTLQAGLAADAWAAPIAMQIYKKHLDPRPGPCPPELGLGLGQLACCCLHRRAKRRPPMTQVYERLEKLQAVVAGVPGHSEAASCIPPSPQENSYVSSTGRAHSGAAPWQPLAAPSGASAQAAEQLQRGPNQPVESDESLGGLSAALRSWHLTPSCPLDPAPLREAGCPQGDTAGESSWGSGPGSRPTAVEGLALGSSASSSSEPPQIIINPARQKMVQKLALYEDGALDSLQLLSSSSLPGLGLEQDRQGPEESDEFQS

Compound	Kd
O=C1NC(=O)/C(=C/c2ccc3nccc(-c4ccncc4)c3c2)S1 [GSK-1059615]	> 30 µM (inactive)
Cc1c(F)cc(C(=O)NC2CC2)cc1-c1ccc(C(=O)NCC(C)(C)C)cn1 [LOSMAPIMOD]	> 30 µM (inactive)
Cn1cc(-c2ccc(F)c(C(F)(F)F)c2)nc1C1CCN(c2ncnc3[nH]ncc23)CC1 [LY-2584702]	> 30 µM (inactive)

Target: T3, Serine/threonine-protein kinase STK11 (Homo sapiens, UniProt Q15831)
T3 sequence (Q15831 whole entry): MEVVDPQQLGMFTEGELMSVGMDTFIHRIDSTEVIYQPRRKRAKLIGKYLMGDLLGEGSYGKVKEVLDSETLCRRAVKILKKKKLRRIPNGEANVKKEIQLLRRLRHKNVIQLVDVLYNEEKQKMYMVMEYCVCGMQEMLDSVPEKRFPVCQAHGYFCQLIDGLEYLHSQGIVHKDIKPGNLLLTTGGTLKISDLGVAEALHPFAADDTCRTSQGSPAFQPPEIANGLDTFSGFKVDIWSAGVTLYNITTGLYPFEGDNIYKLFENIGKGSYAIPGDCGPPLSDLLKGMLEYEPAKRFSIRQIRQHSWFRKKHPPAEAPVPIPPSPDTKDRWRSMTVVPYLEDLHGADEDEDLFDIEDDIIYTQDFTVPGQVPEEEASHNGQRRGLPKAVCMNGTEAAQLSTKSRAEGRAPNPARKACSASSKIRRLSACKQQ

Compound	Kd
O=C1NC(=O)/C(=C/c2ccc3nccc(-c4ccncc4)c3c2)S1 [GSK-1059615]	> 30 µM (inactive)
Cc1c(F)cc(C(=O)NC2CC2)cc1-c1ccc(C(=O)NCC(C)(C)C)cn1 [LOSMAPIMOD]	> 30 µM (inactive)
Cn1cc(-c2ccc(F)c(C(F)(F)F)c2)nc1C1CCN(c2ncnc3[nH]ncc23)CC1 [LY-2584702]	> 30 µM (inactive)

Target: Adenosine kinase (Homo sapiens, UniProt P55263)

Compound	Kd
Cc1c(F)cc(C(=O)NC2CC2)cc1-c1ccc(C(=O)NCC(C)(C)C)cn1 [LOSMAPIMOD]	> 30 µM (inactive)
Cn1cc(-c2ccc(F)c(C(F)(F)F)c2)nc1C1CCN(c2ncnc3[nH]ncc23)CC1 [LY-2584702]	> 30 µM (inactive)

Reference: ChEMBL document CHEMBL3991601, “The target landscape of clinical kinase drugs” (Science, 2017)
